SMILES strings stand for the structures. Calls of active or inactive are those of the source. The rule behind the calls is not given here.

Broadly, the AC50 is the concentration at which the activity in the assay is half-maximal.

Tested on in the first experiment: not listed separately
Description: CD40 pathway inhibition in B cells – B cell lineage, dose response (AID 1259332).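 For activity change, negative = inhibition: 0% = neutral control wells and -100% = positive control wells.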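 Note: cells stimulated with CD40 ligand tCD40L.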 Conditions: B cell line, CD40 signaling inhibition reporter; at 0.38 µM (top of the series).
As for `O=C1C(=Cc2ccccc2[N+](=O)[O-])Cc2ccccc21`, the activity change, negative = inhibition was 19.6% (inactive). As to `C[C@H]1CN([C@@H](C)CO)C(=O)c2ccccc2-c2ccccc2CO[C@H]1CN(C)Cc1ccc(Oc2ccccc2)cc1`, the activity change, negative = inhibition is 6.67% (inactive).

Still in this experiment, the particulars now being: B cell line, CD40 signaling inhibition reporter; at 1.1 µM (top of the series).
Regarding `C/C=C/c1ccc(C2[C@H]3CNC[C@@H]2N3Cc2cccc(OC)c2)cc1` (some centres undefined), the activity change, negative = inhibition was 19.7% (inactive). Same read-out and setting: the figure for `O=C(Nc1nc2ccccc2s1)c1ccc(OCC2CCCO2)cc1` (centres undefined) is 111% (inactive); for `CO[C@@H](CN(C)S(=O)(=O)c1ccc(Cl)cc1)[C@H](C)CN(Cc1ccccc1Cl)[C@@H](C)CO` it is 0.243% (inactive); for `COc1ccc(C#Cc2ccc([C@H]3[C@@H](CO)N4CCCCN(S(=O)(=O)c5cn(C)cn5)C[C@H]34)cc2)cc1` it is 15.6% (inactive).

The experiment is the same for the next values; noted with them: B cell line, CD40 signaling inhibition reporter; at 3.5 µM (top of the series).
Turning to `O=C(Nc1ccc(C(F)(F)F)cc1)Nc1ccc2c(c1)[C@H]1C[C@@H](CC(=O)N3CCc4ccccc4C3)O[C@H](CO)[C@H]1O2`, the activity change, negative = inhibition was 0.714% (inactive).

For the compound `c1cncc(C2=NCCC2)c1`, the activity change, negative = inhibition was -2.83% (inactive). Same read-out and setting: next, `O=C(NCCC(c1ccccc1)c1ccco1)c1cccs1` (centres undefined): 25.6% (inactive). The same measure, in the same setting: next, `CCCNC(=O)N1[C@H](CO)[C@H](c2ccc(-c3cccc(OC)c3)cc2)[C@@H]1C#N`: 12% (inactive); `O=C(Nc1ccc(C(F)(F)F)cc1)Nc1ccc2c(c1)[C@H]1C[C@@H](CC(=O)N3CCc4ccccc4C3)O[C@@H](CO)[C@H]1O2`: -2.03% (inactive); `CCCNC(=O)N1[C@H](C#N)[C@@H](c2ccc(-c3cccc(OC)c3)cc2)[C@H]1CO`: 1.94% (inactive). Take `CC(C)(C)c1cc(/C=C(\C#N)C(N)=S)cc(C(C)(C)C)c1O`: the activity change, negative = inhibition is 4.91% (inactive). Turning to `C[C@@H]1CN([C@@H](C)CO)C(=O)Cc2cc(NS(=O)(=O)c3ccccc3)ccc2O[C@H]1CN(C)Cc1ccc(Cl)c(Cl)c1`, the activity change, negative = inhibition was 0.835% (inactive). Same read-out and setting: next, `CC1=CC(=O)c2ccccc2C1=O`: 11.2% (inactive); `Oc1cc2c(cc1C(c1ccc(Br)cc1)N1CCCC1)OCO2` (centres undefined): 16.1% (inactive).

In the case of `C[C@@H]1CCCCO[C@@H](CN(C)CC2CCCCC2)[C@@H](C)CN([C@@H](C)CO)C(=O)c2cc(NC(=O)Nc3ccc(C(F)(F)F)cc3)ccc2O1`, the activity change, negative = inhibition is -6.41% (inactive).

Still in this experiment, the particulars now being: B cell line, CD40 signaling inhibition reporter; at 10 µM (top of the series).
For the compound `NS(=O)(=O)c1cc2c(cc1C(F)(F)F)NC(Cc1ccccc1)NS2(=O)=O` (centres undefined), the activity change, negative = inhibition is 5.72% (inactive). Same read-out and setting: next, `COc1ccc(NC(=O)O/N=C/c2c(C)nn(C(C)(C)C)c2C)cc1`: 13.9% (inactive); `C[C@@H]1CN([C@H](C)CO)C(=O)c2c(c3ccccc3n2C)-c2ccccc2CO[C@H]1CN(C)C(=O)c1cc(Cl)cc(Cl)c1`: -4.87% (inactive); `O=C(NCc1ccccn1)C1CCCN(S(=O)(=O)c2ccccc2)C1` (centres undefined): 8.97% (inactive). Same read-out and setting: next, `O=C1Cc2c([nH]c3ccc(Br)cc23)-c2ccccc2N1`: 17.8% (inactive); `Cc1cc(C(=O)COC(=O)c2cccn2C)c(C)n1Cc1ccco1`: -4.27% (inactive).

For `COC(=O)c1ccc2c(=O)[nH]c(COC(=O)c3c(-c4ccccc4)noc3C)nc2c1`, the activity change, negative = inhibition is 7.81% (inactive). Still for that read-out and setting: the figure for `CC(C)Cc1ccc(C(C)/C=C2/CCC(CN3CCCCC3)C2=O)cc1` (centres undefined) is -18.1% (inactive); for `C[C@@H]1CN([C@H](C)CO)C(=O)c2c(c3ccccc3n2C)-c2ccccc2CO[C@H]1CN(C)C(=O)Nc1ccccc1C(F)(F)F` it is -0.491% (inactive). Same read-out and setting: the figure for `Cc1cc(C)c2c(c1)SC1=NC(c3ccccc3)(C(F)(F)F)NC(=O)N12` (centres undefined) is 8.7% (inactive).

For the compound `O=C1C(O)CC2c3ccccc3CC3(CCCC3)N12` (centres undefined), the activity change, negative = inhibition is 0.899% (inactive). On the same count and under the same terms, next, `COc1cccc(OC)c1OCCNCC1COc2ccccc2O1` (centres undefined): 18.1% (inactive); `C[C@@H]1CN([C@@H](C)CO)S(=O)(=O)c2ccc(C#Cc3ccccc3F)cc2O[C@H]1CN(C)C(=O)Cc1cccnc1`: -17.7% (inactive). The same measure, in the same setting: next, `CC12CC[C@H]3[C@@H](CCC4(O)C[C@H](O)CCC34/C=N/NC(=O)Cc3ccccc3)C1(O)CCC2C1=CC(=O)OC1` (some centres undefined): 5.75% (inactive). Still for that read-out and setting: next, `CCN1C(=O)C(CC(=O)Nc2ccc(OC)cc2)N(CCc2ccc(F)cc2)C1=S` (centres undefined): -3.22% (inactive); `COc1ccc2c3c(n(C)c2c1)[C@H](CO)N(C(=O)Nc1ccc(F)cc1)CC31CCN(C(=O)c2ccc3c(c2)OCO3)CC1`: 7.94% (inactive); `Cc1ccc(-c2cc(C(=O)N3CCCC(C(F)(F)F)C3)c3ccccc3n2)o1` (centres undefined): 16.7% (inactive). On to `CCCCc1nc2ccccc2[nH]1`, for which the activity change, negative = inhibition was 2.81% (inactive).

Another experiment relates to B cell line, CD40 signaling inhibition reporter. The description is as above.
Conditions: not given
As to `Cc1noc(C)c1S(=O)(=O)N(C)C[C@@H]1OCc2ccccc2-c2c(n(C)c3ccccc23)C(=O)N([C@@H](C)CO)C[C@@H]1C`, the AC50 is 11.3 µM. Still for that read-out and setting: the figure for `CCC(C)(O)C(=O)OC1C(=O)OC2CC3C(C)=CC(=O)C(O)C3(C)C3C4(O)OCC23C1C(C)C4O` (centres undefined) is 0.0299 µM.

As for `Cc1nc(C)c(C(=O)Nc2ncc([N+](=O)[O-])s2)o1`, the AC50 was 9.08 µM. With `CN(C)c1ccc(C(=C2C=CC(=[N+](C)C)C=C2)c2ccc(N(C)C)cc2)cc1`, the AC50 is 0.105 µM. Consider `CC(C)NC(=O)N1Cc2cc(C(=O)NC3Cc4ccccc4C3)nc(-c3cccc(-c4cccnc4)c3)c2[C@@H]1CCO`, for which the AC50 is 10.6 µM. Still for that read-out and setting: the figure for `N#C[C@@H]1[C@H](c2ccc(C#CC3CCCCC3)cc2)[C@H](CO)N1C(=O)Nc1ccc(F)cc1` is > 20 µM (inactive); for `CC(=O)NCCCC(=O)NC(CCC(=O)OCc1ccccc1)C(=O)OCc1ccccc1` (centres undefined) it is > 20 µM (inactive). The same measure, in the same setting: the figure for `CCOc1ncccc1C(=O)OC(C)C(=O)Nc1ccc(Cl)cn1` (centres undefined) is 10.1 µM; for `O=C(C1CCOCC1)N1CC(=O)N2[C@H](C1)[C@H](c1ccc(C#CCc3ccccc3)cc1)[C@@H]2CO` it is 1.86 µM; for `CCS(=O)(=O)N1Cc2ccccc2CC1C(=O)Nc1nc2ccccc2s1` (centres undefined) it is 10.9 µM. Consider `C[C@H]1CN([C@@H](C)CO)C(=O)Cc2cc(NC(=O)Cc3cn(C)c4ccccc34)ccc2O[C@H]1CN(C)Cc1ccc(C(F)(F)F)cc1`, for which the AC50 is > 20 µM (inactive). On the same count and under the same terms, next, `C[C@H]1O[C@@H](O[C@H]2[C@@H](O)C[C@H](O[C@H]3[C@@H](O)C[C@H](O[C@H]4CC[C@]5(C)C6CC[C@]7(C)[C@@H](C8=CC(=O)OC8)CC[C@]7(O)C6CC[C@@H]5C4)O[C@@H]3C)O[C@@H]2C)C[C@H](O)[C@@H]1O` (some centres undefined): 0.929 µM; `Cn1c(CO)nc2cc(N)ccc21`: > 20 µM (inactive); `[O-]C(=C(C(=S)Nc1cccc2ccccc12)[n+]1ccccc1)c1ccc2c(c1)OCCO2`: > 20 µM (inactive).
